From patent publication US9757370B2, “Opsin-binding ligands, compositions and methods of use” (priority 2011, dated 2017) come the findings set out here.

This test has as its system P23H opsin. In words: Rhodopsin purification and regeneration: pigment formation from P23H opsin after compound treatment of P23H cells. To be noted: for Fold Increase Over Control (480-500 nm absorbance): P23H cells treated 48 hours, regenerated with 9-cis-retinal (20 μM), fold increase over the DMSO control.

With `CC1=C(C(O)c2ccc3c(c2)CCN(C(N)=O)C3)C(C)(C)CCC1` (centres unmarked) [Compound 2, 6-(hydroxy(2,6,6-trimethylcyclohex-1-enyl)methyl)-3,4-dihydroisoquinoline-2(1H)-carboxamide], the “Fold Increase Over Control (480-500 nm absorbance)” value (shortened to “Fold Increase Over Control”) (10 μM) worked out at 2.5 fold.

For the molecule `C[C@H]1CCCC(C)(C)[C@@H]1[C@H](O)c1ccc2c(c1)CCN(C(N)=O)C2` [Compound 3, 6-((S)-hydroxy((1R,6S)-2,2,6-trimethylcyclohexyl)methyl)-3,4-dihydroisoquinoline-2(1H)-carboxamide], the “Fold Increase Over Control” value (10 μM) was 1.5 fold. Regarding `CC(=O)/C=C/C1=C(C)CCCC1(C)C` [β-ionone, reference compound], the “Fold Increase Over Control” value (20 μM) is given as 2.4 fold. Besides, under “P23H opsin treated with 20 μM during mutant protein production, relative to vehicle (DMSO) alone”, the “regeneration of 500 nm absorbing pigment upon treatment with retinal (FIG. 1)” value is “increase in regeneration of 500 nm absorbing pigment”. With `C[C@H]1CCCC(C)(C)[C@@H]1[C@@H](O)c1ccc2c(c1)CCN(C(N)=O)C2` [Compound 5, 6-((R)-hydroxy((1R,6S)-2,2,6-trimethylcyclohexyl)methyl)-3,4-dihydroisoquinoline-2(1H)-carboxamide], the “Fold Increase Over Control” value (10 μM) is given as 1.9 fold.
